Laboratory results from patent US20240389596A1, “INSECT, ACARINA AND NEMATODE PEST CONTROL” (priority 2021, published 2024).

Tested on: Spodoptera littoralis (Egyptian cotton leaf worm)
Test: Spodoptera littoralis (Egyptian cotton leaf worm) feeding/contact activity assay on cotton leaf discs
Assay type: in vivo
Settings: for Mortality (%) Observed (%): single active ingredient, L1 larvae, 3 days after infestation; for Mortality (%) Expected (%): component B alone, value printed in the Expected column
From the text: A synergistic effect exists whenever the action of an active ingredient combination is greater than the sum of the actions of the individual components. The action to be expected E for a given active ingredient combination obeys the so-called COLBY formula and can be calculated as follows (COLBY, S. R. “Calculating synergistic and antagonistic responses of herbicide combination”. Weeds, Vol. 15, pages 20-22 1967):
ppm=milligrams of active ingredient (a.i.) per liter X=% action by first active ingredient using p ppm of the active ingredient Y=% action by second active ingredient using q ppm of the active ingredient.
According to Colby, the expected (additive) action of active ingredients A+B using p+q ppm of active ingredient is
If the action actually observed O is greater than the expected action E, then the action of the combination is super-additive, i.e. there is a synergistic effect. In mathematical terms, synergism corresponds to a positive value for the difference of (O-E). In the case of purely complementary addition of activities (expected activity), said difference (O-E) is zero. A negative value of said difference (O-E) signals a loss of activity compared to the expected activity.
The synergistic biological activity of combinations of component (A) and component (B) as disclosed herein was assessed using a Spodoptera littoralis (Egyptian cotton leaf worm) feeding/contact activity assay. Cotton leaf discs were placed onto agar in 24-well microtiter plates and sprayed with aqueous test solutions prepared from 10′000 ppm DMSO stock solutions. After drying the leaf discs were infested with L1 larvae. The samples were assessed for mortality 3 days after infestation.

SMILES: O=C(Nc1ccc(F)c(NC(=O)C(F)F)c1F)c1cc(NC(=O)[C@H]2[C@H](c3cc(C(F)(F)F)cc(C(F)(F)F)c3)C2(Cl)Cl)ccc1Cl [A-1]
- Mortality (%) Observed (%) ([AI] 0.016 mg/L): 0%
- Mortality (%) Observed (%) ([AI] 0.031 mg/L): 0%
- Mortality (%) Observed (%) ([AI] 0.062 mg/L): 0%
- Mortality (%) Observed (%) ([AI] 0.125 mg/L): 0%
- Mortality (%) Observed (%) ([AI] 0.25 mg/L): 80%
- Mortality (%) Observed (%) ([AI] 0.5 mg/L): 100%

SMILES: C[n+]1c([O-])c(-c2ccccc2)c(=O)n2c1SC[C@@H]2c1cnc(Cl)s1 [B-4, fenmezoditiaz]
- Mortality (%) Observed (%) ([AI] 15.625 mg/L): 0%
- Mortality (%) Observed (%) ([AI] 31.25 mg/L): 0%
- Mortality (%) Observed (%) ([AI] 62.5 mg/L): 0%

SMILES: CCS(=O)(=O)c1cccnc1-c1cnc(OCC(F)(F)C(F)(F)F)cn1 [B-10, 2-(3-ethylsulfonyl-2-pyridyl)-5-(2,2,3,3,3-pentafluoropropoxy)pyrazine]
- Mortality (%) Observed (%) ([AI] 0.625 mg/L): 0%
- Mortality (%) Observed (%) ([AI] 1.25 mg/L): 10%
- Mortality (%) Observed (%) ([AI] 2.5 mg/L): 50%
- Mortality (%) Observed (%) ([AI] 5 mg/L): 100%
- Mortality (%) Observed (%) ([AI] 10 mg/L): 100%

SMILES: CCN(C(=O)c1cnn(C(C)C(C)C)c1C)c1ccnnc1 (stereo not drawn) [B-17, dimpropyridaz]
- Mortality (%) Observed (%) ([AI] 15.625 mg/L): 0%
- Mortality (%) Observed (%) ([AI] 31.25 mg/L): 0%
- Mortality (%) Observed (%) ([AI] 62.5 mg/L): 0%
- Mortality (%) Observed (%) ([AI] 125 mg/L): 0%

SMILES: Cc1cc(Cl)cc(C)c1C1=C(O)C2(CCC3(CC2)OCCO3)NC1=O [B-18, spidoxamat]
- Mortality (%) Expected (%) ([AI] 7.812 mg/L): 0%
- Mortality (%) Expected (%) ([AI] 15.625 mg/L): 0%
- Mortality (%) Expected (%) ([AI] 31.25 mg/L): 0%

SMILES: O=c1c(-c2cccc(C(F)(F)F)c2)c([O-])[n+](Cc2cncnc2)c2ccccn12 [B-42, triflumezopyrim]
- Mortality (%) Observed (%) ([AI] 15.625 mg/L): 0%
- Mortality (%) Observed (%) ([AI] 31.25 mg/L): 0%
- Mortality (%) Observed (%) ([AI] 62.5 mg/L): 0%
- Mortality (%) Observed (%) ([AI] 125 mg/L): 20%
- Mortality (%) Observed (%) ([AI] 250 mg/L): 20%

SMILES: CNC(=O)c1cc(Cl)cc(C)c1NC(=O)c1cc(Br)nn1-c1ncccc1Cl [B-46, chlorantraniliprole]
- Mortality (%) Observed (%) ([AI] 0.062 mg/L): 0%
- Mortality (%) Observed (%) ([AI] 0.125 mg/L): 0%
- Mortality (%) Observed (%) ([AI] 0.25 mg/L): 0%
- Mortality (%) Observed (%) ([AI] 0.5 mg/L): 100%

SMILES: CC(c1ccc(C(F)(F)F)nc1)S(C)(=O)=NC#N (stereo not drawn) [B-55, sulfoxaflor]
- Mortality (%) Observed (%) ([AI] 62.5 mg/L): 0%
- Mortality (%) Observed (%) ([AI] 125 mg/L): 0%
- Mortality (%) Observed (%) ([AI] 250 mg/L): 10%
